From US9102648B1, “Bioavailable diacylhydrazine ligands for modulating the expression of exogenous genes via an ecdysone receptor complex” (Intrexon Corporation, priority 2003, dated 2015)
Like-named read-outs stand apart in the source and are kept apart here.

Key:
[1] = biological target: GAL4 DBD (1-147)-CfEcR(DEF)/VP16AD-βRXREF-LmUSPEF (Choristoneura fumiferana, UniProt O77240); test: cell-based; details: for Fold Induction, 27-63 Assay, 3.3 uM: 3.3 uM ligand; for Fold Induction, 27-63 Assay, 3.3 uM / Fold Induction, 27-63 Assay, 33 uM: RLU ligand treated / RLU DMSO treated cells; for Fold Induction, 27-63 Assay, 33 uM: 33 uM ligand; for 27-63 assay Rel Max FI: maximum fold induction at any concentration relative to that of GS-E ligand, CHO 27-63 cells; for fold induction at 3.3 µM: read-out: Fold Induction, 27-63 Assay, 3.3 uM; for fold induction at 33 µM: read-out: Fold Induction, 27-63 Assay, 33 uM
[2] = system: mutated ecdysone receptor-based gene switch; test: In vivo SEAP induction, ligand by IP injection; parameters: species or system C57BL/6 mouse
Experimental: Applicants' ligands are useful in various applications including gene therapy, expression of proteins of interest in host cells, production of transgenic organisms, and cell-based assays. In vivo induction of a reporter enzyme with various ligands of the present invention was evaluated in a C57BL/6 mouse model system containing a gene switch.
Each element of the gene switch was on a separate plasmid. Receptor expression was under the control of a CMV promoter (SEQ ID NO: 15). Induction was evaluated by the amount of reporter protein expressed in the presence of ligand.
SEAP expression in serum of mice was evaluated after electroporation of the gene switch into mouse quadriceps. Mice were anesthetized with 2 μL/g of a mixture of ketamine (100 mg/mL) and xylazine (20 mg/mL). Animals were then shaved, DNA vectors injected into the muscle in a volume of 2×50 μL polyglutamic acid (12 mg/mL water), electrode conductivity gel applied, and an electrode caliber (1 cm×1 cm; model 384) was placed on hind leg. The muscle was electroporated with 200 V/cm, 8 times, for 20 msec/pulse, at 1 sec time intervals. The transverse electrical field direction was reversed after the animals received half of the pulses. Electroporation was performed with an ECM 830 electroporator from BTX Molecular Delivery Systems.
In some experiments mice received an intraperitoneal injection (IP) of 2.6 μmol of ligand in 50 μL of DMSO 3 days after electroporation of the gene switch. In other experiments the concentration of ligand was decrease to 26 nmol/50 μL of DMSO/mouse. SEAP expression was evaluated 2-11 days after ligand administration. In other experiments ligand was administered in rodent chow. The chow was prepared by dissolving 2 g of ligand in 20 mL of acetone and adding it to 1 kg of LabDiet 5010 autoclavable chow from Purina Mills. This was thoroughly mixed in a Hobart mixer and then mixed for an additional 15 min in a Cross Blend mixer. Animals received chow ad libitum for 1, 2, or 3 days. All values are the average from four animals. Background SEAP in sera from animals treated with vector alone without ligand addition was 0-11 ng/mL serum.
Mouse serum was obtained by centrifugation of blood acquired by retroorbital bleeding with a small glass capillary tube. SEAP quantification was determined using a Clontech Great Escape chemiluminescence kit and by comparison with the Clontech SEAP standard.
Table 9: In vivo evaluation of ligand-mediated induction of a mutated ecdysone receptor-based gene switch. SEAP expression in serum of mice was evaluated after electroporation of the gene expression cassettes into mouse quadriceps. Mice received an IP injection of 2.6 μmol of ligand 3 days after electroporation. SEAP expression was evaluated 2-11 days after ligand administration. Each dose group was composed of four animals. Percentage of GS™-E ligand induction was determined by averaging SEAP expression from four animals divided by the average SEAP expression induced with GS™-E ligand and then multiplying by 100.
Table 10: Induction of gene switch expression with low concentrations of ligand. SEAP expression in serum of mice was evaluated after electroporation of the gene expression cassettes into mouse quadriceps. Mice received an IP injection of 26 nmol of ligand or 130 nmol GS™-E ligand 3 days after electroporation. SEAP expression was evaluated 2-7 days after ligand administration. Values are the average from 4 animals.

[3] = read-out: 27-63 assay EC50, CHO 27-63 stable cell line, luciferase reporter, average of two wells

SMILES	Fold Induction, 27-63 Assay, 3.3 uM ([1]; average of two wells)	Fold Induction, 27-63 Assay, 33 uM ([1]; average of two wells)	27-63 assay Rel Max FI [1]	EC50 [1, 3] [nM]	other results
CCc1c(C(=O)NN(C(=O)c2ccccc2OC)C(C)(C)C)ccc2c1OCCO2 [RG-115244]	2203	1847	0.785	169	
CCc1c(OC)cccc1C(=O)NN(C(=O)c1cc(Cl)ccc1OC)C(C)(C)C [RG-115253]	848	910	0.742	107	
CCc1c(OC)cccc1C(=O)NN(C(=O)c1cc(Cl)ccc1[N+](=O)[O-])C(C)(C)C [RG-115257]	1130	1320	0.663	698	
CCc1c(OC)cccc1C(=O)NN(C(=O)c1cc(C)cc(C)c1)C(C)(C)C=NO [RG-115258, 2-ethyl-3-methoxy-benzoic acid N′-(3,5-dimethyl-benzoyl)-N′-(2-hydroxyimino-1,1-dimethyl-ethyl)-hydrazide]			1.279		EC50 [1]: 1880 nM; fold induction at 3.3 µM [1]: 1970; fold induction at 33 µM [1]: 2210
Cc1c(C(=O)NN(C(=O)c2cccc(F)c2)C(C)(C)C)ccc2c1CCCO2 [RG-115278]	1250	906	0.720	885	
CCc1c(C(=O)NN(C(=O)c2cc(Cl)nc(Cl)c2)C(C)(C)C)ccc2c1OCCO2 [RG-115297]	1544	946	0.986	330	
CCc1c(OC)cccc1C(=O)NN(C(=O)c1cc(F)c(Cl)cc1Cl)C(C)(C)C [RG-115302]	940	815	0.521	1040	
COc1cccc(C(=O)NN(C(=O)c2cc(C)cc(C)c2)C(C)(C)C)c1N [RG-115378]	1493	1407	0.863	758	
Cc1ccc([N+](=O)[O-])c(C(=O)N(NC(=O)c2ccc3c(c2C)OCCO3)C(C)(C)C)c1 [RG-115384]	1713	1282	0.645	113	
CCc1c(OC)cccc1C(=O)NN(C(=O)c1cc(C)cc(C)c1)C(C)(C)C=O [RG-115407, 2-ethyl-3-methoxy-benzoic acid N′-(3,5-dimethyl-benzoyl)-N′-(1,1-dimethyl-2-oxo-ethyl)-hydrazide]			0.932		EC50 [1]: 1060 nM; fold induction at 3.3 µM [1]: 1610; fold induction at 33 µM [1]: 1520
Cc1c(C(=O)NN(C(=O)c2ccc(F)c(F)c2)C(C)(C)C)ccc2c1CCCO2 [RG-115416]	2412	1867	0.721	637	
Cc1ccc(F)c(C(=O)N(NC(=O)c2ccc3c(c2C)CCCO3)C(C)(C)C)c1 [RG-115499]	2092	1536	0.705	336	
CCc1c(C(=O)NN(C(=O)c2cc(F)ccc2F)C(C)(C)C)ccc2c1OCCO2 [RG-115508]	1195	969	0.719	1030	
CCc1c(OC)cccc1C(=O)NN(C(=O)c1cc(C)cc(C)c1)C(C)(C)C=NCCO [RG-115511]	1	1155	0.74	12000	
CCc1c(C(=O)NN(C(=O)c2ccc(Cl)cc2F)C(C)(C)C)ccc2c1OCCO2 [RG-115514]	1616	1427	0.720	170	
Cc1c(C(=O)NN(C(=O)c2cc(F)c(F)c(F)c2F)C(C)(C)C)ccc2c1CCCO2 [RG-115518]	1640	1126	0.866	1050	
Cc1c(C(=O)NN(C(=O)c2cc(F)c(Cl)cc2Cl)C(C)(C)C)ccc2c1CCCO2 [RG-115539]	1076	534	0.595	1180	
COc1ccc(Cl)cc1C(=O)N(NC(=O)c1ccc2c(c1C)CCCO2)C(C)(C)C [RG-115551]	1150	1068	0.684	852	
CCc1c(C(=O)NN(C(=O)c2ccc(F)c(F)c2F)C(C)(C)C)ccc2c1OCCO2 [RG-115580]	1104	1031	0.760	375	
CCc1c(OC)cccc1C(=O)NN(C(=O)c1cc(C)cc(C)c1)C(C)(C)C=NNC(=O)C(N)=O [RG-115597, oxamic carbazide of 2-ethyl-3-methoxy-benzoic acid N′-(3,5-dimethyl-benzoyl)-N′-(1,1-dimethyl-2-oxo-ethyl)-hydrazide]	2	2065	1.26	9830	
CCc1c(OC)cccc1C(=O)NN(C(=O)c1ccc(Cl)cc1[N+](=O)[O-])C(C)(C)C [RG-115647]	817	815	0.505	372	
CCc1c(OC)cccc1C(=O)NN(C(=O)c1cc(C)cc(C)c1)C(C)(C)C=NNC(N)=O [RG-115653, semicarbazide of 2-ethyl-3-methoxy-benzoic acid N′-(3,5-dimethyl-benzoyl)-N′-(1,1-dimethyl-2-oxo-ethyl)-hydrazide]	1	832	0.53	19800	
Cc1ccc([N+](=O)[O-])c(C(=O)N(NC(=O)c2ccc3c(c2C)CCCO3)C(C)(C)C)c1 [RG-115664]	1928	1768	0.635	359	
CCc1c(OC)cccc1C(=O)NN(C(=O)c1cc(C)cc(C)c1)C(C)(C)CO[Si](C)(C)C(C)(C)C [RG-115665, 2-ethyl-3-methoxy-benzoic acid N′-[2-(tert-butyl-dimethyl-silanyloxy)-1,1-dimethyl-ethyl]-N′-(3,5-dimethyl-benzoyl)-hydrazide]			0.01		EC50 [1]: 5490 nM; fold induction at 3.3 µM [1]: 2
CCC(N(NC(=O)c1cccc(OC)c1C)C(=O)c1cc(C)cc(C)c1)C(C)(C)C (stereo not drawn) [RG-115819, 3,5-dimethyl-benzoic acid N-(1-ethyl-2,2-dimethyl-propyl)-N′-(3-methoxy-2-methyl-benzoyl)-hydrazide]			1.045		Secreted Alkaline Phosphatase Day 2 ([2]; IP 26 nmol ligand, day 2): 5,984 ng/ml mouse sera; Secreted Alkaline Phosphatase Day 3 ([2]; IP 26 nmol ligand, day 3): 4,096 ng/ml mouse sera; Secreted Alkaline Phosphatase Day 7 ([2]; IP 26 nmol ligand, day 7): 453 ng/ml mouse sera; Secreted Alkaline Phosphatase (percentage of GS ™-E ligand induction) Day 2 ([2]; mouse serum, IP 2.6 μmol ligand 3 days after electroporation, day 2 after ligand): 172 percentage of GS ™-E ligand induction; Secreted Alkaline Phosphatase (percentage of GS ™-E ligand induction) Day 3 ([2]; mouse serum, IP 2.6 μmol ligand, day 3 after ligand): 215 percentage of GS ™-E ligand induction; Secreted Alkaline Phosphatase (percentage of GS ™-E ligand induction) Day 11 ([2]; mouse serum, IP 2.6 μmol ligand, day 11 after ligand): 3,008 percentage of GS ™-E ligand induction; EC50 [1]: 25 nM; fold induction at 3.3 µM [1]: 1970; fold induction at 33 µM [1]: 2370
